According to the supplement of paper PMC10307832:

Columns and labels:
Experiment in all cases: relative viability (nuclei count vs DMSO), 5 days (fraction); higher = more cells survive
CUDC-101 + OSI-027 = compound: C#Cc1cccc(Nc2ncnc3cc(OC)c(OCCCCCCC(=O)NO)cc23)c1 [CUDC-101] + COc1cccc2cc(-c3nc([C@H]4CC[C@H](C(=O)O)CC4)n4ncnc(N)c34)[nH]c12 [OSI-027] (partner 0.5 µM)
How it was run: (§1)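 Lung cancer cell lines in 1536-well plates were dosed by pin tool the day after seeding, either with one drug alone or with a fixed anchor-drug dose plus five library-drug doses (not always all listed) in √10 steps. After 5 days, cells were fixed and their nuclei stained in one step (final 0.05% Triton X-100, 1% formaldehyde, 1 ug/ml Hoechst), then counted on 4× images. Relative viability is the nuclei count in treated wells divided by that in vehicle wells. Values are medians of duplicate plates.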

Vandetanib + Bortezomib = compound: COc1cc2/c(=N/c3ccc(Br)cc3F)nc[nH]c2cc1OCC1CCN(C)CC1 [Vandetanib] + CC(C)C[C@H](NC(=O)[C@H](Cc1ccccc1)NC(=O)c1cnccn1)B(O)O [Bortezomib] (partner 0.002 µM)
How it was run: as §1

[1] = compound: C1=CC=C2C(=C1)N=C(S2)C(C#N)C3=NC(=NC=C3)NCCC4=CN=CC=C4 + CS(=O)(=O)N1CCN(Cc2cc3nc(-c4cccc5[nH]ncc45)nc(N4CCOCC4)c3s2)CC1 [Pictilisib] (partner 1 µM)
How it was run: as §1

[2] = compound: C1=CC=C2C(=C1)N=C(S2)C(C#N)C3=NC(=NC=C3)NCCC4=CN=CC=C4 + C[C@@H](Oc1cc(-c2cnn(C3CCNCC3)c2)cnc1N)c1c(Cl)ccc(F)c1Cl [Crizotinib] (partner 1 µM)
How it was run: as §1

Cell Line | relative viability (CUDC-101 + OSI-027; first compound 0.01 µM) | relative viability (CUDC-101 + OSI-027; first compound 0.03162 µM) | relative viability (CUDC-101 + OSI-027; first compound 0.1 µM) | relative viability (CUDC-101 + OSI-027; first compound 0.3162 µM) | relative viability (CUDC-101 + OSI-027; first compound 1 µM) | relative viability (Vandetanib + Bortezomib; first compound 0.02 µM) | relative viability (Vandetanib + Bortezomib; first compound 0.06325 µM) | relative viability (Vandetanib + Bortezomib; first compound 0.2 µM) | relative viability (Vandetanib + Bortezomib; first compound 0.6325 µM) | relative viability (Vandetanib + Bortezomib; first compound 2 µM) | relative viability ([1]; first compound 0.005 µM) | relative viability ([1]; first compound 0.01581 µM) | relative viability ([1]; first compound 0.05 µM) | relative viability ([1]; first compound 0.1581 µM) | relative viability ([1]; first compound 0.5 µM) | relative viability ([2]; first compound 0.005 µM) | relative viability ([2]; first compound 0.01581 µM) | relative viability ([2]; first compound 0.05 µM) | relative viability ([2]; first compound 0.1581 µM) | relative viability ([2]; first compound 0.5 µM)
LCLC-103H | 0.45 | 0.42 | 0.485 | 0.435 | 0.433 | 1.09 | 0.966 | 1.05 | 1.05 | 0.924 | 0.493 | 0.446 | 0.498 | 0.707 | 0.681 | 1.12 | 1.03 | 1 | 1.13 | 0.964
LK-2 | 0.217 | 0.212 | 0.201 | 0.203 | 0.15 |  |  |  |  |  |  |  | 0.531 | 0.597 | 0.685 |  |  | 0.216 | 0.209 | 0.238
NCI-H358 | 0.834 | 0.893 | 0.909 | 0.884 | 0.315 |  |  |  |  |  | 0.347 | 0.295 | 0.319 | 0.371 | 0.342 | 0.678 | 0.539 | 0.533 | 0.621 | 0.609
NCI-H522 | 0.638 | 0.64 | 0.67 | 0.703 | 0.549 |  |  |  |  |  |  |  |  |  |  |  |  |  |  | 
NCI-H1299 |  |  |  |  |  | 0.997 | 0.976 | 1.02 | 1.05 | 1.04 | 0.682 | 0.941 | 0.807 | 0.875 | 0.834 | 0.943 | 0.964 | 0.989 | 0.95 | 0.871
NCI-H1395 | 0.746 | 0.629 | 0.628 | 0.727 | 0.508 |  |  |  |  |  | 0.602 |  | 0.651 | 0.781 | 0.81 |  |  |  |  | 
NCI-H1623 | 0.452 | 0.441 | 0.33 | 0.329 | 0.239 |  |  |  |  |  |  |  |  |  |  |  |  |  |  | 
NCI-H1648 | 0.265 |  | 0.243 | 0.266 | 0.254 |  |  |  |  |  |  |  |  |  |  |  |  |  |  | 
NCI-H1703 |  |  |  |  |  | 0.379 |  | 0.374 | 0.31 | 0.245 | 0.242 | 0.223 | 0.218 | 0.261 | 0.252 | 0.666 | 0.684 | 0.536 | 0.542 | 0.458
NCI-H1793 | 0.291 | 0.255 | 0.255 | 0.25 | 0.218 |  |  |  |  |  | 0.329 | 0.275 | 0.353 | 0.267 | 0.352 |  |  |  |  | 
NCI-H1944 | 0.436 | 0.388 | 0.357 | 0.36 | 0.253 |  |  |  |  |  | 0.369 | 0.33 | 0.355 | 0.362 | 0.319 | 1.15 | 1.18 | 1.02 | 1.12 | 1.1
NCI-H2170 | 0.697 | 0.765 | 0.605 | 0.686 | 0.619 |  |  |  |  |  |  | 0.298 | 0.292 | 0.394 | 0.32 |  | 1.33 | 1.1 | 1.31 | 1.05
NCI-H2342 | 0.579 | 0.607 | 0.59 | 0.673 | 0.725 |  |  |  |  |  |  |  |  |  |  |  |  |  |  | 
SK-MES-1 | 0.604 | 0.601 | 0.673 | 0.656 | 0.381 |  |  |  |  |  | 0.365 | 0.454 | 0.277 | 0.352 | 0.374 | 1.11 | 1.12 | 0.99 | 1.14 | 0.902
SW 900 | 0.577 | 0.42 | 0.562 | 0.577 | 0.662 |  |  |  |  |  |  |  |  |  |  |  |  |  |  | 
